Laboratory results taken from ChEMBL document CHEMBL1150976, “The selectivity of protein kinase inhibitors: a further update” (Biochem J, 2007).

Tests used:
[1] = biological target: RAC-beta serine/threonine-protein kinase (Homo sapiens) (UniProt P31751); assay: Percentage PKBbeta activity remaining in the presence of 25uM inhibitor
[2] = biological target: Myosin light chain kinase, smooth muscle (Homo sapiens, UniProt Q15746); assay: Percentage SmMLCK activity remaining in the presence of 25uM inhibitor
Chain of Myosin light chain kinase, smooth muscle (Q15746 whole entry): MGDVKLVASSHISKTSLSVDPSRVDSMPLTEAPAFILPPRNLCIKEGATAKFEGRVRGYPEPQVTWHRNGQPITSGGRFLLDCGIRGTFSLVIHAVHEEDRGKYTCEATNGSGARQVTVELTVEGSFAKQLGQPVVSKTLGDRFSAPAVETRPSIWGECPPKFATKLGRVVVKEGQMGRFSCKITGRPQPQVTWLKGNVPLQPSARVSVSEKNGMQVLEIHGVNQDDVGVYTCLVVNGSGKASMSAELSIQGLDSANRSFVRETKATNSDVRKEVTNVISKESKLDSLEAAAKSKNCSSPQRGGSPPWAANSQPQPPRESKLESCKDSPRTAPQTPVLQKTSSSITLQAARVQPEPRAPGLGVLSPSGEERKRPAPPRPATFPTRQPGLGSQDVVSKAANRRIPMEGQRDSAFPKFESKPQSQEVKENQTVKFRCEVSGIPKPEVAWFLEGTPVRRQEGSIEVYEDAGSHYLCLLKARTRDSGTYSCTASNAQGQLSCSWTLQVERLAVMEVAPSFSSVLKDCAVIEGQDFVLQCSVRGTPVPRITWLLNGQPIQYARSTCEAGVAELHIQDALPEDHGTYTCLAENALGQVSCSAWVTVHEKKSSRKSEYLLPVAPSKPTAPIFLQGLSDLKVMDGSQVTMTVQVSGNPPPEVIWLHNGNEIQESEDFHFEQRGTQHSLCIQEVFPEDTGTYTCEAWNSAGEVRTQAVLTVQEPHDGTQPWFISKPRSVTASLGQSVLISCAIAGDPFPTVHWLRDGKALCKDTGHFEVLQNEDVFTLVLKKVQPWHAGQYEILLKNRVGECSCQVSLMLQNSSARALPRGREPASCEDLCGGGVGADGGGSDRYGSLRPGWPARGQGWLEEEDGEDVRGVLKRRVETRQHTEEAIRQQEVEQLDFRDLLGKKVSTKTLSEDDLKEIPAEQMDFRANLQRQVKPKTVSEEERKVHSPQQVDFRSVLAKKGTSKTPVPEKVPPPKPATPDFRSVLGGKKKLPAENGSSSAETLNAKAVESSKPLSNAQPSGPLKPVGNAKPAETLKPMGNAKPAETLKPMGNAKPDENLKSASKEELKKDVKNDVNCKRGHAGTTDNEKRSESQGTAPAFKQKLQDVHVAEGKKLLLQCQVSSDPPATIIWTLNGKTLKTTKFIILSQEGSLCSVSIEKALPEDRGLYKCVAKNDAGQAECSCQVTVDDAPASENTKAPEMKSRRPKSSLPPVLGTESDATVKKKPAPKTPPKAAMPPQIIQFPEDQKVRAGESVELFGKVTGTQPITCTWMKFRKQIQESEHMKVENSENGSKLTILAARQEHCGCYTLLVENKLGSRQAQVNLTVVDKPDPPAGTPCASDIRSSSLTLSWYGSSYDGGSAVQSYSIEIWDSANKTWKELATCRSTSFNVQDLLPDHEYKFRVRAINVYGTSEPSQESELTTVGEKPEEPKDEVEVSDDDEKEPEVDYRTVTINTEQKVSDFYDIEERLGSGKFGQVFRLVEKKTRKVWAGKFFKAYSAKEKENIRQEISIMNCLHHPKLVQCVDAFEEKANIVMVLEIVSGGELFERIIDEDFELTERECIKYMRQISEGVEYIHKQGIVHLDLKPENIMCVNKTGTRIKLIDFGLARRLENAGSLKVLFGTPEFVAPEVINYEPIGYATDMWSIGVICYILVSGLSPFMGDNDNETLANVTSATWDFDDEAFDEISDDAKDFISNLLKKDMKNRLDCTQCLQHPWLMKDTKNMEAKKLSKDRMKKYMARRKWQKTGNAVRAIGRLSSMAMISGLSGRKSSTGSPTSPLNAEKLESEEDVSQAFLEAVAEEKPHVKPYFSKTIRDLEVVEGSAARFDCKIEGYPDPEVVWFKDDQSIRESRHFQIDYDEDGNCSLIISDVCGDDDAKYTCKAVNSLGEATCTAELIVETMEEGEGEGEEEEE

[3] = biological target: Serine/threonine-protein kinase pim-3 (Homo sapiens, UniProt Q86V86); assay: Percentage PIM3 activity remaining in the presence of 25uM inhibitor; details: filed as antagonist
[4] = biological target: Homeodomain-interacting protein kinase 3 (Homo sapiens) (UniProt Q9H422); assay: Percentage HIPK3 activity remaining in the presence of 25uM inhibitor
Chain of Homeodomain-interacting protein kinase 3 (Homo sapiens) (Q9H422 whole entry, looked up): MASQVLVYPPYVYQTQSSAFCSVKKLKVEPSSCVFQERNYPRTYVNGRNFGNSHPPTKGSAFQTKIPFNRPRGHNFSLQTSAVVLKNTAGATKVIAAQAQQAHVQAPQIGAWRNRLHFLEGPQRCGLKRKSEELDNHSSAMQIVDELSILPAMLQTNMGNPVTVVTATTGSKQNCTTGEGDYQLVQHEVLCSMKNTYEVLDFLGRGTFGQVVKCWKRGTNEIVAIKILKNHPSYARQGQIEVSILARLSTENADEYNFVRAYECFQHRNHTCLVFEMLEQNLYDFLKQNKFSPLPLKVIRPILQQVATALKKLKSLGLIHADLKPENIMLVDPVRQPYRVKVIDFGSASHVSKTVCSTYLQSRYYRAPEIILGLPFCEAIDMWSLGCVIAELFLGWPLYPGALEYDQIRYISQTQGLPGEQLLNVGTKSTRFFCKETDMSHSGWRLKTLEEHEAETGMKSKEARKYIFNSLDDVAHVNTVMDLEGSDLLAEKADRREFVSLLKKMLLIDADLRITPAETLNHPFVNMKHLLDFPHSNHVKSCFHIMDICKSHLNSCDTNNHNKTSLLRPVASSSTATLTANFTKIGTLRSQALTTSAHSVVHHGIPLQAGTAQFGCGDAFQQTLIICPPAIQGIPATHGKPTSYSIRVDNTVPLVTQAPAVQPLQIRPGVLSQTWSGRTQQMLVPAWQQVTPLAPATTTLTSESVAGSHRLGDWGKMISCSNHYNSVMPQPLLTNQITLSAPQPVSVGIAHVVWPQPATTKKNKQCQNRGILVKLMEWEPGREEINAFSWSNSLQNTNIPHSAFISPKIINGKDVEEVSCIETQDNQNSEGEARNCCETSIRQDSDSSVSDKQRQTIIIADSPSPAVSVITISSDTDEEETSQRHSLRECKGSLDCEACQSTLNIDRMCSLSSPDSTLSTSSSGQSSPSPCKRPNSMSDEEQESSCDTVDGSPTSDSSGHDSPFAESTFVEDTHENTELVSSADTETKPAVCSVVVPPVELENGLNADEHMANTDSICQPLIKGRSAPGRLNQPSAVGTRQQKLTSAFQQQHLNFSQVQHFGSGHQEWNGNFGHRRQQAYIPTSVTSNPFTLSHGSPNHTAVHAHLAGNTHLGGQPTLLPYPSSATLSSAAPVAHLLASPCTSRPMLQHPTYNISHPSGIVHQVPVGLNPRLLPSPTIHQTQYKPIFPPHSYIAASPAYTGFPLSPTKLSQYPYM

[5] = biological target: MAP kinase-interacting serine/threonine-protein kinase 2 (Homo sapiens) (UniProt Q9HBH9); assay: Percentage MNK2 activity remaining in the presence of 25uM inhibitor
[6] = biological target: RAC-alpha serine/threonine-protein kinase (Homo sapiens) (UniProt P31749); assay: Percentage PKBalpha activity remaining in the presence of 25uM inhibitor
Chain of RAC-alpha serine/threonine-protein kinase (Homo sapiens) (P31749 whole entry): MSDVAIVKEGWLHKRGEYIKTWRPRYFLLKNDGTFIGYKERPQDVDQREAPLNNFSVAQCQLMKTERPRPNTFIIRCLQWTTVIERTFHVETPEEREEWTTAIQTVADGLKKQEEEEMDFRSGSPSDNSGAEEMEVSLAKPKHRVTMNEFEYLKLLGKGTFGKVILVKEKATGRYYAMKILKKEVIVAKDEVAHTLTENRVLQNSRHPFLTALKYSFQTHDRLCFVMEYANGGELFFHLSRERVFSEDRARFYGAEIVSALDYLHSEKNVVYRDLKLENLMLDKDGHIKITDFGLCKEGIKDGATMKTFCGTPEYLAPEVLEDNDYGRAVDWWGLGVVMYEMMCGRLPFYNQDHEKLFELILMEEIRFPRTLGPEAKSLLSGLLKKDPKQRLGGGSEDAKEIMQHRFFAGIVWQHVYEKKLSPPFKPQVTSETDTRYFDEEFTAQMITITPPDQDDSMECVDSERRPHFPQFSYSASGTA

[7] = biological target: T1, Serine/threonine-protein kinase Sgk1 (Homo sapiens) (UniProt O00141); assay: Percentage SGK1 activity remaining in the presence of 25uM inhibitor
T1 sequence (whole entry): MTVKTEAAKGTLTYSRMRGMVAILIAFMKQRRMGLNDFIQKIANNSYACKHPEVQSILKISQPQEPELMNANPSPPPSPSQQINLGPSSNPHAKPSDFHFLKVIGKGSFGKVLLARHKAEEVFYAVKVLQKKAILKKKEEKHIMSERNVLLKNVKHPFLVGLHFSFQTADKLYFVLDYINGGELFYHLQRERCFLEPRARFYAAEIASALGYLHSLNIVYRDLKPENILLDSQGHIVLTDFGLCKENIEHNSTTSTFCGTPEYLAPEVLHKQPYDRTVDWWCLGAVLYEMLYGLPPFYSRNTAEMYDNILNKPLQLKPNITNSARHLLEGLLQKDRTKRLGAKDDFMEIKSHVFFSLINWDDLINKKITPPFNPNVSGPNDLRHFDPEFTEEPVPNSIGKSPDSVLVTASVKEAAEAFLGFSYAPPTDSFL

[8] = biological target: Calcium/calmodulin-dependent protein kinase kinase 2 (Homo sapiens) (UniProt Q96RR4); assay: Percentage CaMKKbeta activity remaining in the presence of 25uM inhibitor
[9] = biological target: T2, Dual specificity tyrosine-phosphorylation-regulated kinase 3 (Homo sapiens) (UniProt O43781); assay: Percentage DYRK3 activity remaining in the presence of 25uM inhibitor
T2 sequence (whole entry): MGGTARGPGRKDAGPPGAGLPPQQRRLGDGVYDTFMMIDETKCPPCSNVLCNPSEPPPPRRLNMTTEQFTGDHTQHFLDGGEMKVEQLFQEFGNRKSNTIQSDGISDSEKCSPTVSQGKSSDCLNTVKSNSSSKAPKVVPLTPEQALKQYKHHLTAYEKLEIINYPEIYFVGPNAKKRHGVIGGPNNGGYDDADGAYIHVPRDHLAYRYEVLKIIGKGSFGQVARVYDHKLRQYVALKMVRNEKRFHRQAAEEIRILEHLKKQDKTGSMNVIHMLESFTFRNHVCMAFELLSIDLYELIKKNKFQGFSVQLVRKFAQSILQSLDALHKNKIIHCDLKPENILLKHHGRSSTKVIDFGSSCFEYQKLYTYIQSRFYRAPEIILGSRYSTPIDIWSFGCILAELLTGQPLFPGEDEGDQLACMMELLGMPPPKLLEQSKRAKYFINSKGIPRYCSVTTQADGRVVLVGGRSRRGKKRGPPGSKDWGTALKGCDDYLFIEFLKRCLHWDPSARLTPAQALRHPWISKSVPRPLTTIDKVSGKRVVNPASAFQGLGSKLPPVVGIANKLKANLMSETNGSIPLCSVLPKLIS

[10] = biological target: Tyrosine-protein kinase CSK (Homo sapiens, UniProt P41240); assay: Percentage CSK activity remaining in the presence of 25uM inhibitor
[11] = biological target: T3, Mitogen-activated protein kinase 12 (Homo sapiens) (UniProt P53778); assay: Percentage p38-gamma activity remaining in the presence of 25uM inhibitor
T3 sequence (whole entry): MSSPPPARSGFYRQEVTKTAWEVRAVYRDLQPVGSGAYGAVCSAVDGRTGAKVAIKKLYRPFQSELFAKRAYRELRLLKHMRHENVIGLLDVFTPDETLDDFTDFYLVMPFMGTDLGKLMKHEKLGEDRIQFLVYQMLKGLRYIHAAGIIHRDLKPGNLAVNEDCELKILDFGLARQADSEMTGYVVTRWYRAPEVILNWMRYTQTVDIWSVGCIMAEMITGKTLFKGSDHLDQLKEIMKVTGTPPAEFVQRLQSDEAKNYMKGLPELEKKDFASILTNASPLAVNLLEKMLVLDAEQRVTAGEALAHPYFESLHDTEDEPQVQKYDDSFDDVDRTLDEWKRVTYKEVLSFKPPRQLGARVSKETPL

[12] = biological target: Dual specificity mitogen-activated protein kinase kinase 1 (Homo sapiens) (UniProt Q02750); assay: Percentage MKK1 activity remaining in the presence of 25uM inhibitor
[13] = biological target: Ribosomal protein S6 kinase alpha-1 (Homo sapiens) (UniProt Q15418); assay: Percentage RSK1 activity remaining in the presence of 25uM inhibitor
[14] = biological target: Serine/threonine-protein kinase PLK1 (Homo sapiens, UniProt P53350); assay: Percentage PLK1 activity remaining in the presence of 25uM inhibitor
Chain of Serine/threonine-protein kinase PLK1 (P53350 whole entry): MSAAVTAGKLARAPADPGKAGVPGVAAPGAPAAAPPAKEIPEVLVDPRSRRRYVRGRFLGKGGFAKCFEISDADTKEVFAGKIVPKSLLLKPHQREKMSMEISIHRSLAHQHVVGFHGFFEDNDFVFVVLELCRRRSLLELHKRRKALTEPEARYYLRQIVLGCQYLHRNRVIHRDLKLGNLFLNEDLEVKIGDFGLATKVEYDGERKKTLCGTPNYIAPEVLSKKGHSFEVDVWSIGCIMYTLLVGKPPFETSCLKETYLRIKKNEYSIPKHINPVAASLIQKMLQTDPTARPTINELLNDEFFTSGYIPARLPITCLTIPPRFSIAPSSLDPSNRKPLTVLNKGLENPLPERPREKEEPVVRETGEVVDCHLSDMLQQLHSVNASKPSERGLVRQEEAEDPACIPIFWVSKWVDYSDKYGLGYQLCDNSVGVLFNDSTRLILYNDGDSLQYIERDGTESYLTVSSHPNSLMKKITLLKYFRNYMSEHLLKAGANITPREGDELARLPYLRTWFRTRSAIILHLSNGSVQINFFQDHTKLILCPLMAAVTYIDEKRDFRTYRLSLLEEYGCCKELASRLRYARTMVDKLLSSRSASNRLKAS

[15] = biological target: T4, Dual specificity tyrosine-phosphorylation-regulated kinase 2 (Homo sapiens) (UniProt Q92630); assay: Percentage DYRK2 activity remaining in the presence of 25uM inhibitor
T4 sequence (whole entry): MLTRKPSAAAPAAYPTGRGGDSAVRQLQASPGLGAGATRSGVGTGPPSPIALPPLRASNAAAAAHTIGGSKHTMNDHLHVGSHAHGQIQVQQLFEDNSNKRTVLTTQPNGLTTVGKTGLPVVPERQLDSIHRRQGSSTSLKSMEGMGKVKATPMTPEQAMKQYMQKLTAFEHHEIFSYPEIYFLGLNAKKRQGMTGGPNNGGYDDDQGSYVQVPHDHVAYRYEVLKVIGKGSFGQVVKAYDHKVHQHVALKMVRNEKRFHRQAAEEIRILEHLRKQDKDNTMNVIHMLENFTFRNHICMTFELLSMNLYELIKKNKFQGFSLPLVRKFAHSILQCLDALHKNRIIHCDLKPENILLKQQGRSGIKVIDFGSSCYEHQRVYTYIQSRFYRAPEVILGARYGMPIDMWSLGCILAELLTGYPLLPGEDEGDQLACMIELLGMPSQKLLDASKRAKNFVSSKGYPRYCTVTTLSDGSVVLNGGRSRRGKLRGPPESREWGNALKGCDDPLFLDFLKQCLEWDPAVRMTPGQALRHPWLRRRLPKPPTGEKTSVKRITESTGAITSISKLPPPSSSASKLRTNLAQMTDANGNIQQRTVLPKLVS

[16] = biological target: MAP/microtubule affinity-regulating kinase 3 (Homo sapiens) (UniProt P27448); assay: Percentage MARK3 activity remaining in the presence of 25uM inhibitor
Chain of MAP/microtubule affinity-regulating kinase 3 (Homo sapiens) (P27448 whole entry, looked up): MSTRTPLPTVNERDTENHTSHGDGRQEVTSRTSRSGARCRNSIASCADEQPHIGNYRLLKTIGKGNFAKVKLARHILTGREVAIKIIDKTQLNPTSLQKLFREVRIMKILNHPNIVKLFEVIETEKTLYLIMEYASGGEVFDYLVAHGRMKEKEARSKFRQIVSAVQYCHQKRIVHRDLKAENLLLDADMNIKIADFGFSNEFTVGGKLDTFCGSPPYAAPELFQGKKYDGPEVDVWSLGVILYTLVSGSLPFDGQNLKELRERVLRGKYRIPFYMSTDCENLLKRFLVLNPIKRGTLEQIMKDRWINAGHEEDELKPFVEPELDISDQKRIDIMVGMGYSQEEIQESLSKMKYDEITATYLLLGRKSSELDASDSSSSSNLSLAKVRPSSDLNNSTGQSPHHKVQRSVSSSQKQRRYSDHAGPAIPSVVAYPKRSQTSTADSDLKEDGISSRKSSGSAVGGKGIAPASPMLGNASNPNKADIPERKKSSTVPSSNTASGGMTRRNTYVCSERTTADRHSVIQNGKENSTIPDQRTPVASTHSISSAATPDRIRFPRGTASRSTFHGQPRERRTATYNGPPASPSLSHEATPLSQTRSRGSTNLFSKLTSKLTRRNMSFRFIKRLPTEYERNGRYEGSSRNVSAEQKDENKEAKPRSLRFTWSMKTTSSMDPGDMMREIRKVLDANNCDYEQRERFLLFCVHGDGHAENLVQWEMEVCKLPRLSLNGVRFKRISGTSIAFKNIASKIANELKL

[17] = biological target: Homeodomain-interacting protein kinase 2 (Homo sapiens) (UniProt Q9H2X6); assay: Percentage HIPK2 activity remaining in the presence of 25uM inhibitor

| Activity ([7]; filed as antagonist) | Activity ([9]; filed as antagonist) | Activity ([13]; filed as antagonist) | Compound | Activity [1] | Activity [2] | Activity [3] | Activity [4] | Activity [5] | Activity [6] | Activity [7] | Activity [8] | Activity [9] | Activity [10] | Activity [11] | Activity [12] | Activity [13] | Activity [14] | Activity [15] | Activity [16] | Activity [17] |
| --- | --- | --- | --- | --- | --- | --- | --- | --- | --- | --- | --- | --- | --- | --- | --- | --- | --- | --- | --- | --- |
| – | – | – | COc1cc(OC)c(/C=C2/C(=O)Nc3ccccc32)c(OC)c1 | 90% | 70% | 41% | 95% | 97% | 94% | 79% | 86% | 89% | 81% | 93% | 86% | 87% | 95% | 99% | 88% | 96% |
| 25% | 46% | 48% | NCCNS(=O)(=O)c1ccc(Cl)c2ccncc12 | 89% | 84% | 28% | 86% | 76% | 54% | – | 86% | – | 79% | 102% | 76% | – | 81% | 76% | 78% | 98% |
